Measured values reported in patent US7279550B2, “Irreversible cysteine protease inhibitors of legumain” (Probiodrug AG, priority 2001, dated 2007).

What was measured:
[1] = target: T1, legumain (Homo sapiens, UniProt Q99538); assay: Fluorogenic continuous rate assay of legumain activity, substrate Z-Ala-Ala-Asn-AMC (kobs/[I]); type: biochemical; conditions: for kobs/[l] (second-order rate constant for the inactivation of legumain): substrate Z-Ala-Ala-Asn-AMC, 37° C. or 30° C., sodium citrate buffer, 1 mM dithiothreitol, 1 mM EDTA, approximate second-order inactivation constants
T1 sequence (Q99538 18-323): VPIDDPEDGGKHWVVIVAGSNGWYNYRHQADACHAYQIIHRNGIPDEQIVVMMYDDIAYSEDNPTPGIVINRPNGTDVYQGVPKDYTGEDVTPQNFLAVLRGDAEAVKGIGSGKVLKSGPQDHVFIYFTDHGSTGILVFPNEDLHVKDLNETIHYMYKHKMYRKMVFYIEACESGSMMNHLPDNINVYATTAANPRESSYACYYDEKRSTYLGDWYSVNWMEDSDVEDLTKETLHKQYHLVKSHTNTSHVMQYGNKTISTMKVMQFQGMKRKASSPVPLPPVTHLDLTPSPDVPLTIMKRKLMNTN
Method: The legumain activity was determined in a fluorogenic continuos rate assay using the substrate Z-Ala-Ala-Asn-AMC on a Kontron spectrofluorometer SFM25 (exitation 380; emission 460) equipped with a four cell changer and controlled by an IBM-compatible personal computer. The obtained data were analyzed with the software FLUCOL^(38). The assay were done at 37° C. or 30° C., using a sodium citrate buffer (39.5 mM citric acid/121 mM Na2HPO4) containing 1 mM dithiothreitol and 1 mM EDTA. Additionally, 0.1% (w/v) Chaps or 0.015% (w/v) Brij 35 was added.
The inhibition progress curves were analyzed using non-linear curve fitting software Prism Graph Pad to compute the kobs values. Approximate second-order inactivation constants (kobs/[I]) were calculated for all compounds.

[2] = target: T1, legumain; assay: Determination of Ki-values, legumain, substrate Z-Ala-Ala-Asn-AMC; type: biochemical; conditions: HEPES pH 7.6, 30° C.; substrate 0.05, 0.1, 0.2 and 0.4 mM
Method: 100 μl inhibitor stock solution were mixed with 100 μl buffer (HEPES pH 7.6) and 50 μl substrate Z-Ala-Ala-Asn-AMC and preincubated at 30° C. Reaction was started by addition of 20 μl enzyme solution. Formation of the product AMC was measured on a Kontron spectrofluorometer SFM25 (exitation 380; emission 460) and slopes were calculated. Legumain activity was measured at final substrate concentrations of 0.05, 0.1, 0.2, and 0.4 mM and further 7 inhibitor concentrations covering the IC50 concentration. Calculations were performed using the GraFit 4.0.13 (Erithacus) Software.

kobs/[l] (second-order rate constant for the inactivation of legumain) [1] [M⁻¹ s⁻¹]	Compound	also measured
2	COC(=O)/C(C)=C/[C@H](CC(N)=O)NC(=O)C(C)NC(=O)C(C)NC(=O)OCc1ccccc1 (stereo partly drawn) [Compound 9, Methyl (S)-(E)-4-[Cbz-L-Ala-L-Ala]amino-6-amino-2-methyl-6-oxo-2-hexenoate]	
	C[C@H](NC(=O)OCc1ccccc1)C(=O)N[C@@H](C)C(=O)N[C@@H](CC(N)=O)C(=O)NOC(=O)c1ccccc1 [Compound 20, [Cbz-L-Ala-L-Ala-L-Asn]-O-benzoylhydroxamate]	Ki [2]: 3.1 µM
456	CCOC(=O)/C=C/[C@H](CC(N)=O)NC(=O)[C@H](C)NC(=O)[C@H](C)NC(=O)OCc1ccccc1 [Compound 6, Ethyl (S)-(E)-4-[Cbz-L-Ala-L-Ala]amino-6-amino-6-oxo-2-hexenoate]	
543	COC(=O)/C=C/[C@H](CC(N)=O)NC(=O)[C@H](C)NC(=O)[C@H](C)NC(=O)OCc1ccccc1 [Compound 5, Methyl (S)-(E)-4-[Cbz-L-Ala-L-Ala]amino-6-amino-6-oxo-2-hexenoate]	
<1	Diethyl [(S)-(E)-3-[Cbz-L-Ala-L-Ala]amino-5-amino-5-oxo-1-petenylphosphate [Compound 13]	
30	Methyl [(S)-(E)-3-[Cbz-L-Ala-L-Ala]amino-5-amino-5-oxo-1-petene]-sulfonate [Compound 12]	
776	C=CCOC(=O)/C=C/[C@H](CC(N)=O)NC(=O)[C@H](C)NC(=O)[C@H](C)NC(=O)OCc1ccccc1 [Compound 7, Allyl (S)-(E)-4-[Cbz-L-Ala-L-Ala]amino-6-amino-6-oxo-2-hexenoate]	
139088	CC(NC(=O)OCc1ccccc1)C(=O)NC(C)C(=O)NN(CC(N)=O)C(=O)CCl [Compound 18, 2-[2-(Cbz-L-Ala-L-Ala)-1-(chloroacetyl)hydrazino]acetamide]	second-order rate constant for the inactivation of legumain, fold higher than that of the Michael acceptor inhibitors ([1]; compared with the Michael acceptor inhibitors): approximately 200 fold
84000	C[C@H](NC(=O)OCc1ccccc1)C(=O)N[C@@H](C)C(=O)NN(CC(N)=O)C(=O)CBr [Compound 22, 2-[2-(Cbz-L-Ala-L-Ala)-1-(bromoacetyl)hydrazino]acetamide]	inhibition of legumain (in words) [1]: potent inhibitor
4	CC(NC(=O)OCc1ccccc1)C(=O)NC(C)C(=O)N[C@H](/C=C/C(=O)O)CC(N)=O (stereo partly drawn) [Compound 8, (S)-(E)-4-[Cbz-L-Ala-L-Ala]amino-6-amino-6-oxo-2-hexenoic acid]	
2	CCOC(=O)/C(C)=C/[C@H](CC(N)=O)NC(=O)C(C)NC(=O)C(C)NC(=O)OCc1ccccc1 (stereo partly drawn) [Compound 10, Ethyl (S)-(E)-4-[Cbz-L-Ala-L-Ala]amino-6-amino-2-methyl-6-oxo-2-hexenoate]	
<1	C/C(=C\[C@H](CC(N)=O)NC(=O)[C@H](C)NC(=O)[C@H](C)NC(=O)OCc1ccccc1)C(=O)O [Compound 11, (S)-(E)-4-[Cbz-L-Ala-L-Ala]amino-6-amino-2-methyl-6-oxo-2-hexenoic acid]	

Compound	kobs/[l] (second-order rate constant for the inactivation of legumain) [1] [M⁻¹ s⁻¹]	also measured
C[C@H](NC(=O)OCc1ccccc1)C(=O)N[C@@H](C)C(=O)NN(CC(N)=O)C(=O)COC(=O)c1ccccc1 [Compound 24, 2-[2-(Cbz-L-Ala-L-Ala)-1-(benzoyloxyacetyl)hydrazino]acetamide]	13	inhibition of legumain (in words) [1]: only moderate inhibition
